Assay results reported in PubChem BioAssay AID256 (DTP/NCI, 2004).
Where “and” joins values, the source holds several entries; their conditions need not be identical. Equal values may be shown once. Inconclusive results and toxic doses are left out.

System: CD2F1 mice, L1210 leukemia ip, survival T/C
Test: NCI In Vivo Anticancer Drug Screen. Data for tumor model L1210 Leukemia (intraperitoneal) in CD2F1 (CDF1) mice
Conditions: higher = longer survival
How it was run: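 Antitumor effect is scored in animals hosting a serially transplanted tumor. Values compare compound-dosed animals against vehicle-only controls as a simple quotient.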

[1] = endpoint: mean survival time, dose: 75.0 mg/kg/injection, schedule: Q01DX009 (ip), vehicle: saline with Tween-80
[2] = endpoint: mean survival time, dose: 100.0 mg/kg/injection, schedule: Q04DX003 (ip), vehicle: saline with Tween-80
[3] = endpoint: mean survival time, dose: 150.0 mg/kg/injection, schedule: Q01DX009 (ip), vehicle: saline with Tween-80
[4] = endpoint: mean survival time, dose: 200.0 mg/kg/injection, schedule: Q04DX003 (ip), vehicle: saline with Tween-80
[5] = endpoint: mean survival time, dose: 400.0 mg/kg/injection, schedule: Q04DX003 (ip), vehicle: saline with Tween-80
[6] = endpoint: mean survival time, dose: 50.0 mg/kg/injection, schedule: Q01DX009 (ip), vehicle: saline
[7] = endpoint: mean survival time, dose: 100.0 mg/kg/injection, schedule: Q01DX009 (ip), vehicle: saline
[8] = endpoint: mean survival time, dose: 200.0 mg/kg/injection, schedule: Q01DX009 (ip), vehicle: saline
[9] = endpoint: mean survival time, dose: 400.0 mg/kg/injection, schedule: Q01DX009 (ip), vehicle: saline

## N.N.O=C([O-])/C=C\C(=O)[O-].[Pt]
endpoint: mean survival time, dose: 2.5 mg/kg/injection, schedule: Q04DX003 (ip), vehicle: distilled water + Tween-80
  T/C: 112 % of control
endpoint: mean survival time, dose: 5.0 mg/kg/injection, schedule: Q04DX003 (ip), vehicle: distilled water + Tween-80
  T/C: 116 % of control
endpoint: mean survival time, dose: 10.0 mg/kg/injection, schedule: Q04DX003 (ip), vehicle: distilled water + Tween-80
  T/C: 113 % of control
endpoint: mean survival time, dose: 10.0 mg/kg/injection, schedule: Q04DX003 (ip), vehicle: water
  T/C: 105 % of control
endpoint: mean survival time, dose: 20.0 mg/kg/injection, schedule: Q04DX003 (ip), vehicle: distilled water + Tween-80
  T/C: 118 % of control
endpoint: mean survival time, dose: 20.0 mg/kg/injection, schedule: Q04DX003 (ip), vehicle: water
  T/C: 113 % of control
endpoint: mean survival time, dose: 40.0 mg/kg/injection, schedule: Q04DX003 (ip), vehicle: water
  T/C: 118 % of control

## CO[C@@]12[C@@H]3N[C@@H]3CN1C1=C(C(=O)C(Nc3nc(C)c(C)s3)=C(C)C1=O)[C@@H]2COC(N)=O
endpoint: median survival time, dose: 1.5 mg/kg/injection, schedule: Q01DX001 (ip), vehicle: distilled water + Tween-80
  T/C: 98 % of control and 101 % of control
endpoint: median survival time, dose: 3.0 mg/kg/injection, schedule: Q01DX001 (ip), vehicle: distilled water + Tween-80
  T/C: 120 % of control and 101 % of control and 102 % of control
endpoint: median survival time, dose: 6.0 mg/kg/injection, schedule: Q01DX001 (ip), vehicle: distilled water + Tween-80
  T/C: 123 % of control and 101 % of control (2×)
endpoint: median survival time, dose: 12.0 mg/kg/injection, schedule: Q01DX001 (ip), vehicle: distilled water + Tween-80
  T/C: 98 % of control and 101 % of control
endpoint: median survival time, dose: 24.0 mg/kg/injection, schedule: Q01DX001 (ip), vehicle: distilled water + Tween-80
  T/C: 121 % of control and 102 % of control and 106 % of control

## Cc1c(Cl)ccc(OCC2=NCCN2)c1C
endpoint: mean survival time, dose: 25.0 mg/kg/injection, schedule: Q04DX002 (ip), vehicle: saline with Tween-80
  T/C: 109 % of control
endpoint: mean survival time, dose: 50.0 mg/kg/injection, schedule: Q04DX002 (ip), vehicle: saline with Tween-80
  T/C: 97 % of control
endpoint: mean survival time, dose: 100.0 mg/kg/injection, schedule: Q04DX002 (ip), vehicle: saline with Tween-80
  T/C: 100 % of control and 102 % of control

## CCOC(=O)C(C(C)=O)C(C(C)=O)C(=O)OCC (configuration not stated)
[1]
  T/C: 97 % of control
[2]
  T/C: 98 % of control
[3]
  T/C: 97 % of control
[4]
  T/C: 95 % of control
endpoint: mean survival time, dose: 300.0 mg/kg/injection, schedule: Q01DX009 (ip), vehicle: saline with Tween-80
  T/C: 97 % of control
[5]
  T/C: 106 % of control

## CC(=O)NCCCCCCNC(C)=O
endpoint: mean survival time, dose: 25.0 mg/kg/injection, schedule: Q01DX009 (ip), vehicle: saline
  T/C: 96 % of control
[6]
  T/C: 100 % of control
[7]
  T/C: 100 % of control
[8]
  T/C: 94 % of control
[9]
  T/C: 100 % of control
endpoint: mean survival time, dose: 800.0 mg/kg/injection, schedule: Q01DX009 (ip), vehicle: saline
  T/C: 93 % of control

## NC(=S)c1c2ccccc2nn1C1OC(CO)C(O)C1O (configuration not stated)
endpoint: mean survival time, dose: 100.0 mg/kg/injection, schedule: Q01DX005 (ip), vehicle: saline
  T/C: 98 % of control
endpoint: mean survival time, dose: 200.0 mg/kg/injection, schedule: Q01DX005 (ip), vehicle: saline
  T/C: 101 % of control

## FC(F)(F)COP1(OCC(F)(F)F)=NP(OCC(F)(F)F)(OCC(F)(F)F)=NP(c2ccccc2)(c2ccccc2)=N1
endpoint: mean survival time, dose: 100.0 mg/kg/injection, schedule: Q04DX003 (ip), vehicle: saline
  T/C: 102 % of control
endpoint: mean survival time, dose: 200.0 mg/kg/injection, schedule: Q04DX003 (ip), vehicle: saline
  T/C: 100 % of control
endpoint: mean survival time, dose: 400.0 mg/kg/injection, schedule: Q04DX003 (ip), vehicle: saline
  T/C: 100 % of control

## CCOC(=O)CCC(NC(=O)c1ccc(NCc2ccc3nc(N)nc(N)c3c2C)cc1)C(=O)OCC (configuration not stated)
endpoint: mean survival time, dose: 0.01 mg/kg/injection, schedule: Q01DX009 (ip), vehicle: saline + alcohol
  T/C: 104 % of control
endpoint: mean survival time, dose: 0.02 mg/kg/injection, schedule: Q01DX009 (ip), vehicle: saline + alcohol
  T/C: 116 % of control
endpoint: mean survival time, dose: 0.03 mg/kg/injection, schedule: Q01DX009 (ip), vehicle: saline + alcohol
  T/C: 113 % of control
endpoint: mean survival time, dose: 0.06 mg/kg/injection, schedule: Q01DX001 (ip), vehicle: saline + alcohol
  T/C: 98 % of control and 101 % of control
endpoint: mean survival time, dose: 0.06 mg/kg/injection, schedule: Q01DX009 (ip), vehicle: saline + alcohol
  T/C: 113 % of control
endpoint: mean survival time, dose: 0.11 mg/kg/injection, schedule: Q01DX009 (ip), vehicle: saline + alcohol
  T/C: 110 % of control
endpoint: mean survival time, dose: 0.12 mg/kg/injection, schedule: Q01DX001 (ip), vehicle: saline + alcohol
  T/C: 112 % of control
endpoint: mean survival time, dose: 0.13 mg/kg/injection, schedule: Q01DX001 (ip), vehicle: saline + alcohol
  T/C: 104 % of control
endpoint: mean survival time, dose: 0.25 mg/kg/injection, schedule: Q01DX001 (ip), vehicle: saline + alcohol
  T/C: 121 % of control and 111 % of control
endpoint: mean survival time, dose: 1.0 mg/kg/injection, schedule: Q01DX001 (ip), vehicle: saline + alcohol
  T/C: 122 % of control

## O=C1c2ccccc2C(=O)c2c(NC3CCCCC3)ccc(Nc3ccc(S(=O)(=O)O)cc3)c21
endpoint: mean survival time, dose: 75.0 mg/kg/injection, schedule: Q01DX001 (ip), vehicle: saline
  T/C: 100 % of control
endpoint: mean survival time, dose: 150.0 mg/kg/injection, schedule: Q01DX001 (ip), vehicle: saline
  T/C: 100 % of control
endpoint: mean survival time, dose: 300.0 mg/kg/injection, schedule: Q01DX001 (ip), vehicle: saline
  T/C: 103 % of control

## Nc1nc(=S)c2ncn(C3OC(CO)C(O)C3O)c2[nH]1 (configuration not stated)
endpoint: mean survival time, dose: 1.0 mg/kg/injection, schedule: Q01DX005 (ip), vehicle: saline + alcohol
  T/C: 154 % of control
endpoint: mean survival time, dose: 2.0 mg/kg/injection, schedule: Q01DX005 (ip), vehicle: saline + alcohol
  T/C: 152 % of control
endpoint: mean survival time, dose: 4.0 mg/kg/injection, schedule: Q01DX005 (ip), vehicle: saline + alcohol
  T/C: 150 % of control
endpoint: mean survival time, dose: 10.0 mg/kg/injection, schedule: Q03DX003 (ip), vehicle: saline
  T/C: 151 % of control
endpoint: mean survival time, dose: 10.0 mg/kg/injection, schedule: Q04DX003 (ip), vehicle: saline
  T/C: 163 % of control
endpoint: mean survival time, dose: 20.0 mg/kg/injection, schedule: Q01DX007 (ip), vehicle: saline
  T/C: 107 % of control
endpoint: mean survival time, dose: 20.0 mg/kg/injection, schedule: Q03DX003 (ip), vehicle: saline
  T/C: 151 % of control
endpoint: mean survival time, dose: 20.0 mg/kg/injection, schedule: Q04DX003 (ip), vehicle: saline
  T/C: 150 % of control
endpoint: mean survival time, dose: 37.5 mg/kg/injection, schedule: Q01DX009 (ip), vehicle: saline
  T/C: 113 % of control
endpoint: mean survival time, dose: 40.0 mg/kg/injection, schedule: Q01DX009 (ip), vehicle: saline
  T/C: 95 % of control
endpoint: mean survival time, dose: 40.0 mg/kg/injection, schedule: Q04DX003 (ip), vehicle: saline
  T/C: 164 % of control
endpoint: mean survival time, dose: 75.0 mg/kg/injection, schedule: Q01DX009 (ip), vehicle: saline
  T/C: 89 % of control
endpoint: mean survival time, dose: 178.0 mg/kg/injection, schedule: Q01DX001 (ip), vehicle: saline
  T/C: 152 % of control
endpoint: mean survival time, dose: 267.0 mg/kg/injection, schedule: Q01DX001 (ip), vehicle: saline
  T/C: 152 % of control
endpoint: mean survival time, dose: 400.0 mg/kg/injection, schedule: Q01DX001 (ip), vehicle: saline
  T/C: 159 % of control

## CCc1cccc(OCC(C)=O)c1
endpoint: mean survival time, dose: 75.0 mg/kg/injection, schedule: Q01DX001 (ip), vehicle: saline with Tween-80
  T/C: 97 % of control
endpoint: mean survival time, dose: 150.0 mg/kg/injection, schedule: Q01DX001 (ip), vehicle: saline with Tween-80
  T/C: 101 % of control
endpoint: mean survival time, dose: 300.0 mg/kg/injection, schedule: Q01DX001 (ip), vehicle: saline with Tween-80
  T/C: 100 % of control

## CC1(C)N=C(N)N=C(N)N1c1cccc(CCC(=O)Nc2ccc(S(=O)(=O)F)cc2)c1
[6]
  T/C: 100 % of control
[7]
  T/C: 102 % of control
[8]
  T/C: 105 % of control
endpoint: mean survival time, dose: 300.0 mg/kg/injection, schedule: Q01DX009 (ip), vehicle: saline
  T/C: 105 % of control
[9]
  T/C: 108 % of control

## CC(=O)/C(=N/O)c1ccccc1
[1]
  T/C: 102 % of control
[2]
  T/C: 102 % of control
[3]
  T/C: 94 % of control
[4]
  T/C: 102 % of control
[5]
  T/C: 94 % of control

## CCCCCCCCCCCCCC(=O)[O][Sn]([CH2]CCC)([CH2]CCC)[O]C(=O)CCCCCCCCCCCCC
endpoint: mean survival time, dose: 0.78 mg/kg/injection, schedule: Q01DX009 (ip), vehicle: other
  T/C: 97 % of control
endpoint: mean survival time, dose: 1.56 mg/kg/injection, schedule: Q01DX009 (ip), vehicle: other
  T/C: 100 % of control
endpoint: mean survival time, dose: 3.13 mg/kg/injection, schedule: Q01DX009 (ip), vehicle: other
  T/C: 112 % of control

## COc1cc(/C=C(\C#N)c2ccc(Cl)cc2)ccc1OCc1ccccc1
endpoint: mean survival time, dose: 50.0 mg/kg/injection, schedule: Q01DX009 (ip), vehicle: saline with Tween-80
  T/C: 95 % of control
endpoint: mean survival time, dose: 100.0 mg/kg/injection, schedule: Q01DX009 (ip), vehicle: saline with Tween-80
  T/C: 90 % of control
[2]
  T/C: 89 % of control
endpoint: mean survival time, dose: 200.0 mg/kg/injection, schedule: Q01DX009 (ip), vehicle: saline with Tween-80
  T/C: 90 % of control
[4]
  T/C: 89 % of control
[5]
  T/C: 89 % of control
